Measurements from paper PMC9228733, “Novel Radioiodinated and Radiofluorinated Analogues of FT-2102 for SPECT or PET Imaging of mIDH1 Mutant Tumours” (Molecules, 2022).
Where two headings read alike, the source gives them in different places.

Tests used:
wt IDH2 = biological target: T1, wt IDH2 (Homo sapiens, UniProt P48735); test: wt IDH enzyme assay, wt IDH2; assay type: biochemical; conditions: mean of at least three determinations
T1 construct: purchased BPS Bioscience
T1 sequence (P48735 40-452): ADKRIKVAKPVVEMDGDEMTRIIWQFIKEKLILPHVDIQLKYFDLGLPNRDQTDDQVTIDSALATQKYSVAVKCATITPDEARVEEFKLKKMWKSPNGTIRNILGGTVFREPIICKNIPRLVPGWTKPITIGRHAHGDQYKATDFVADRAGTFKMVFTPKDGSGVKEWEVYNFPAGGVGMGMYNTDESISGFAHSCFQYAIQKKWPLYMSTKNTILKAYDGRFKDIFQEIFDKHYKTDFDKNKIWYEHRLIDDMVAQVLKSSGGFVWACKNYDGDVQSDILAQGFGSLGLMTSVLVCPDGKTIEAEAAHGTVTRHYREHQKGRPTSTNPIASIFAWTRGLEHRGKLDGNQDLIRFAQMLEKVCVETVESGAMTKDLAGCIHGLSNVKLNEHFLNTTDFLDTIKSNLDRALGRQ
Experimental: (§1) wt IDH enzyme assay is a modified version of the assay used for mIDH1. With the conversion of isocitrate to α-KG, this enzyme stoichiometrically converts NADP to NADPH. The produced NADPH, which directly couples to the diaphorase/resazurin system and the resorufin production, can be measured. The protocols for the determination of inhibition of both wt IDH1 and wt IDH2 were conducted as described by Wang et al.. The wt IDH1 (ab113858) was purchased from abcam (Cambridge, UK), and the wt IDH2, from BPS Bioscience (San Diego, CA, USA).
Assays for wt IDH2 were conducted in 50 µL buffer (20 mM TRIS buffer (pH = 7.5), 150 mM NaCl, 10 mM MgCl2, 0.05% BSA, and 4 mM β-mercaptoethanol) containing 50 µM NADP, 70 µM D/L-isocitrate, and 0.05 µg/mL wt IDH2 enzyme (reaction time 1 h at RT). For inhibition assays, triplicate samples of the compounds in the concentration range from 10^−5 to 10^−10 M were incubated with the wt IDH2 and NADP for 1 h before addition of D/L-isocitrate to initiate the reaction together with the direct detection system comprising 20 µg/mL diaphorase and 4 µM resazurin. The reaction was stopped by addition of 5 μL 10% SDS and read as described above. The data were imported into GraphPad Prism, and the IC50 values were calculated with a standard dose−response curve fitting.

wt IDH1 = biological target: T2, wt IDH1 (Homo sapiens, UniProt O75874); test: wt IDH enzyme assay, wt IDH1; assay type: biochemical; conditions: mean of at least three determinations
T2 construct: purchased abcam ab113858
Experimental: as §1
Briefly, wt IDH1 assays were conducted in 50 µL buffer (20 mM TRIS buffer (pH = 7.5), 150 mM NaCl, 10 mM MgCl2, 0.05% BSA, and 4 mM β-mercaptoethanol) containing 50 µM NADP, 70 µM D/L-isocitrate, and 0.04 µg/mL wt IDH1 enzyme (reaction time 1 h at RT). For inhibition assays, triplicate samples of the compounds in the concentration range from 10^−5 to 10^−10 M were incubated with the wt IDH1 for 1 h before addition of D/L-isocitrate and NADP to initiate the reaction together with the direct detection system comprising 20 µg/mL diaphorase and 4 µM resazurin.

IDH1 R132H = biological target: T3, IDH1 R132H (Homo sapiens, UniProt O75874, R132H); test: Mutant IDH1 enzyme assay (diaphorase/resazurin), IDH1 R132H; assay type: biochemical; conditions: for IC50: mean ± SD of at least three determinations
T3 construct: purchased BPS Bioscience BPS-79376
Experimental: (§2) The amount of NADPH remaining at the end of the reaction time is measured in a secondary diaphorase/resazurin reaction in which the NADPH is consumed in a 1:1 molar ratio with the conversion of resazurin to the highly fluorescent resorufin. […] For inhibition assays, triplicate samples of the compounds in the concentration range from 10^−5 to 10^−10 M were incubated with the enzyme for 30 min prior to addition of α-KG and NADPH to initiate the reaction. The reaction ran for 60 min at room temperature and was terminated with the addition of 25 μL of Detection Buffer (36 μg/mL diaphorase, […]) to 50 µL of the reaction solution. […] The data were imported into GraphPad Prism 4.1 (GraphPad Inc.; La Jolla; CA, USA), and the IC50 values were calculated with a standard dose–response curve fitting (Figure S3).

IDH1 R132C = biological target: T4, IDH1 R132C (Homo sapiens, UniProt O75874, R132C); test: Mutant IDH1 enzyme assay (diaphorase/resazurin), IDH1 R132C; assay type: biochemical; conditions: mean ± SD of at least three determinations
T4 construct: purchased ActiveMotif ACM-31713
Experimental: as §2

[1] = Stability of radiotracer at room temperature in ethanol, saline or DPBS (radio-HPLC); assay type: physicochemical
Experimental: To a solution of organotin precursor (S)-15 in methanol (50 µL, 1 mg/mL) were successively added [^125I]NaI (10-50 µL, 2.1–15.3 MBq), glacial acetic acid (2.5 µL), and a solution of CAT trihydrate (5 µL, 1 mg/mL). The reaction vial was sealed and stirred at room temperature for 5 min before addition of a solution of Na2S2O5 in deionised water (5 µL, 1 mg/mL). The reaction mixture was purified by semipreparative RP-HPLC. The collected fraction was further diluted with deionised water (10 mL) and passed through a Sep-Pak® Plus Light cartridge (beforehand conditioned successively with 10 mL of deionised water, 10 mL of methanol, and 10 mL of deionised water). The cartridge was washed with deionised water (2 mL) and dried with air before elution of the radioiodinated tracer (S)-[^125I]2 with ethanol (500 µL). The radiotracer was finally formulated in saline or DPBS (pH 7.4) to reach an ethanol content of ca. 5% for stability studies.
The aqueous solution of [^18F]F^− in [^18O]H2O was passed through an anion exchange resin (Sep-Pak® Light Accell Plus QMA carbonate cartridge) preconditioned with 10 mL of ethanol, 10 mL of an aqueous solution of lithium trifluoromethanesulfonate (90 mg/mL), and 10 mL of deionised water. Then, a solution of potassium carbonate (50 µg) and lithium trifluoromethanesulfonate (10 mg) in water (550 µL) was passed through the cartridge to elute the radioactivity to the reactor before addition of anhydrous ACN (1 mL). In such conditions, more than 97% of the radioactivity was usually recovered from the cartridge. The solution was dried by azeotropic distillation under reduced pressure and He flow at 100 °C for 12 min. After cooling to 25 °C, anhydrous DMA (2 mL) was added to the reactor. Then, 200 µL of the resulting solution (40–245 MBq, n = 10) was transferred in a glass vial equipped with a magnetic stirrer before addition of a solution of tetrakis(pyridine)copper(II) triflate (Cu(OTf)2(py)4, 14 mg, 20.6 µmol) in anhydrous DMA (250 µL) and a solution of the tin precursor (S)-15 (6.1 mg, 10.0 µmol) in anhydrous DMA (100 µL). The reaction mixture was stirred at 110 °C for 10 min. After cooling to 25 °C, deionised water (25 mL) was added, and the reaction mixture was passed through a Sep-Pak® C18 Plus Light cartridge preconditioned with 10 mL of deionised water, 10 mL of methanol, and 10 mL of deionised water. The cartridge was washed with deionised water (2 mL) and flushed with air before elution of the desired ^18F-labelled radiotracer with ACN (500 µL). For isolation of the radiotracer, the eluate was subjected to semipreparative RP-HPLC. The collected fraction was diluted with deionised water (25 mL) and passed through a Sep-Pak® C18 Plus Light cartridge preconditioned with 10 mL of deionised water, 10 mL of methanol, and 10 mL of deionised water. The cartridge was washed with deionised water (2 mL) and flushed with air before elution of the final (S)-[^18F]3 radiotracer with ethanol (500–600 µL). The radiotracer was finally formulated in saline or DPBS (pH 7.4) to reach an ethanol content of ca. 5% for stability studies.
(§3) Figure 7 Radioactivity-HPLC chromatograms of the radiotracer (S)-[^125I]2 incubated, for 1, 2, and 3 h post formulation, at room temperature in ethanol, NaCl 0.9% containing 5% ethanol, and DPBS (pH 7.4) containing 5% ethanol, as well as in a mixture of DPBS and mouse serum at 37 °C.
(§4) Figure 8 Radioactivity-HPLC chromatograms of the radiotracer (S)-[^18F]3 incubated, for 0, 1, and 2 h post formulation, at room temperature in ethanol, NaCl 0.9% containing 5% ethanol, and DPBS (pH 7.4) containing 5% ethanol, as well as in a mixture of DPBS and mouse serum at 37 °C.

[2] = Stability of radiotracer in mouse serum at 37 °C (radio-HPLC); assay type: in vitro ADME
Experimental: as §3, §4

mIDH1 = conditions: cited from earlier work
[3] = phenyl-glycine scaffold, mixtures of stereoisomers, read-out: IC50 for mIDH1
[4] = butyl-phenyl sulfonamides, read-out: IC50

T4 sequence (O75874 whole entry R132C): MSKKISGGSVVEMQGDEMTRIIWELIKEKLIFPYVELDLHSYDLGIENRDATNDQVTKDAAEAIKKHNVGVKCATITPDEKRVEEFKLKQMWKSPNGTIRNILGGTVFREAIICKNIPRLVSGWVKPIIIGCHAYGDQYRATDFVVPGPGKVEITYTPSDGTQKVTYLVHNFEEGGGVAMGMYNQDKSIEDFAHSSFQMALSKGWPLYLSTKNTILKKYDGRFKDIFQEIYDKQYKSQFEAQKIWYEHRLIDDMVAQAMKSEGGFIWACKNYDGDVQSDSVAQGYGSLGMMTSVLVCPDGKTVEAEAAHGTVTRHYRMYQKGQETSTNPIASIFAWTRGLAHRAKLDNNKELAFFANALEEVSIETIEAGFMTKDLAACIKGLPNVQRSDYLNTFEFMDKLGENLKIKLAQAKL
T2 sequence (O75874 whole entry): as the sequence (O75874 whole entry R132C) above, with C132R counted along it
T3 sequence (O75874 whole entry R132H): as the sequence (O75874 whole entry R132C) above, with C132H counted along it

Compound | IC50 (wt IDH2) [nM] | IC50 (wt IDH1) [nM] | IC50 (IDH1 R132H) [nM] | IC50 (IDH1 R132C) [nM] | IC50 (mIDH1; [3]) [nM] | also measured
C[C@H](Nc1ccc(C#N)n(C)c1=O)c1cc2cc([18F])ccc2[nH]c1=O [(S)-[^18F]3] | – | – | – | – | – | RCP (stability) ([1]; DPBS (pH 7.4) containing 5% ethanol, over 2 h): > 99%; RCP (stability) ([1]; NaCl 0.9% containing 5% ethanol, over 2 h): > 99%; RCP (stability) ([1]; ethanolic solution from final C18 SPE cartridge, over 2 h): > 99%; RCP (stability) ([2]; 37 °C, over 2 h): > 99%
C[C@H](Nc1ccc(C#N)n(C)c1=O)c1cc2cc([125I])ccc2[nH]c1=O [(S)-[^125I]2] | – | – | – | – | – | RCP (stability) ([1]; DPBS pH 7.4, room temperature, 3 h post formulation): 97.4%; RCP (stability) ([1]; ethanolic solution eluted after C18 SPE cartridge, room temperature, 3 h post formulation): 98.0%; RCP (stability) ([1]; formulation medium (saline, ca. 5% ethanol), room temperature, 3 h post formulation): 97.2%; RCP (stability) ([2]; 3 h at 37 °C): 94.3%
Cc1ccccc1C(C(=O)NC1CCCCC1)N(C(=O)Cn1ccnc1C)c1cccc([18F])c1 (stereo not shown) [III] | – | – | – | – | < 50 | –
Cc1ccccc1C(C(=O)NC1CCCCC1)N(C(=O)n1cnc2ccccc21)c1cccc([18F])c1 (stereo not shown) [II] | – | – | – | – | < 50 | –
Cc1ccccc1C(C(=O)NC1CCCCC1)N(C(=O)Cn1ccnc1C)c1cccc([125I])c1 (stereo not shown) [IV] | – | – | – | – | < 50 | –
N#Cc1ccnc(N2C(=O)CCC2C(=O)N(c2cncc([18F])c2)C(C(=O)NC2CC(F)(F)C2)c2ccccc2Cl)c1 (stereo not shown) [I] | – | – | – | – | < 50 | –
CCCCc1ccc(NS(=O)(=O)c2ccc(C)c(C(=O)N3CCN(c4ccccc4OCC[18F])CC3)c2)cc1 [VII] | – | – | – | – | – | IC50 (mIDH1; [4]): 2300 nM
CCCCc1ccc(NS(=O)(=O)c2ccc(C)c(C(=O)N3CCN(c4ccccc4[125I])CC3)c2)cc1 [VI] | – | – | – | – | – | IC50 (mIDH1; [4]): 1700 nM

The next lines start with results.

IC50 (wt IDH2) [nM] | IC50 (wt IDH1) [nM] | IC50 (IDH1 R132H) [nM] | IC50 (IDH1 R132C) [nM] | Compound | IC50 (mIDH1; [3]) [nM] | also measured
> 10000 | > 10000 | 323 ± 83 | > 10000 | C[C@@H](Nc1ccc(C#N)n(C)c1=O)c1cc2cc(I)ccc2[nH]c1=O [(R)-2, (R)-5-{[1-(6-iodo-2-oxo-1,2-dihydroquinolin-3-yl)ethyl]-amino}-1-methyl-6-oxo-1,6-dihydropyridine-2-carbonitrile] | – | –
> 10000 | > 10000 | 698 ± 145 | > 10000 | C[C@@H](Nc1ccc(C#N)n(C)c1=O)c1cc2cc(F)ccc2[nH]c1=O [(R)-3, (R)-5-{[1-(6-fluoro-2-oxo-1,2-dihydroquinolin-3-yl)ethyl]-amino}-1-methyl-6-oxo-1,6-dihydropyridine-2-carbonitrile] | – | –
> 10000 | > 10000 | 5.23 ± 0.75 | 160 ± 24 | C[C@H](Nc1ccc(C#N)n(C)c1=O)c1cc2cc(I)ccc2[nH]c1=O [(S)-2, (S)-5-{[1-(6-iodo-2-oxo-1,2-dihydroquinolin-3-yl)ethyl]-amino}-1-methyl-6-oxo-1,6-dihydropyridine-2-carbonitrile] | – | –
> 10000 | > 10000 | 22.7 ± 5.2 | 579 ± 110 | C[C@H](Nc1ccc(C#N)n(C)c1=O)c1cc2cc(F)ccc2[nH]c1=O [(S)-3, (S)-5-{[1-(6-fluoro-2-oxo-1,2-dihydroquinolin-3-yl)ethyl]-amino}-1-methyl-6-oxo-1,6-dihydropyridine-2-carbonitrile] | – | decrease of inhibitory potency compared with iodinated compound (S)-2 (IDH1 R132H; IDH1 R132H): fourfold
